Test results taken from patent publication US10508120B2, “TYK2 inhibitors and uses thereof” (Nimbus Lakshmi, Inc., priority 2017, dated 2019).

What was measured:
Tyk2 kinase domain (DH1) = Tyk2 kinase domain (DH1) (Homo sapiens (Human), UniProt P29597); experiment: Tyk2 Radioactive Kinase Assay; assay type: biochemical; details: compound at 10 μM; ATP 10 μM; read-out: Tyk2 JH1% Inhibition @ 10 μM
Method in brief: (§1)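 Read-out is percent inhibition from a radioactive kinase reaction, measured with compound at 10 μM.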

JAK2 kinase domain (JH1) = JAK2 kinase domain (JH1) (Homo sapiens (Human), UniProt O60674); experiment: JAK2 Radioactive Kinase Assay; assay type: biochemical; details: compound at 10 μM; ATP 10 μM; read-out: JAK2 JH1% Inhibition @ 10 μM
JAK2 kinase domain (JH1), sequence (O60674 849-1124): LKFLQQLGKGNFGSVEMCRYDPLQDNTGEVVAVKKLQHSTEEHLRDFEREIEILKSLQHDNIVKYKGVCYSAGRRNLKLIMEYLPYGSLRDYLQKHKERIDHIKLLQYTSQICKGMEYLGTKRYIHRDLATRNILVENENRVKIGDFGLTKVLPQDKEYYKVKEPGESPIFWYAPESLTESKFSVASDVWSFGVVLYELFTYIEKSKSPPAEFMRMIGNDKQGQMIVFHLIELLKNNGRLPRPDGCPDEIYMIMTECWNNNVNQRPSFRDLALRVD
Method in brief: as §1

[1] = biological target: human TYK2 (JH2domain-pseudokinase) (Homo sapiens (Human), UniProt P29597); experiment: TYK2 JH2 Domain Binding Assay (KINOMEscan)
human TYK2 (JH2domain-pseudokinase), sequence (P29597 556-888): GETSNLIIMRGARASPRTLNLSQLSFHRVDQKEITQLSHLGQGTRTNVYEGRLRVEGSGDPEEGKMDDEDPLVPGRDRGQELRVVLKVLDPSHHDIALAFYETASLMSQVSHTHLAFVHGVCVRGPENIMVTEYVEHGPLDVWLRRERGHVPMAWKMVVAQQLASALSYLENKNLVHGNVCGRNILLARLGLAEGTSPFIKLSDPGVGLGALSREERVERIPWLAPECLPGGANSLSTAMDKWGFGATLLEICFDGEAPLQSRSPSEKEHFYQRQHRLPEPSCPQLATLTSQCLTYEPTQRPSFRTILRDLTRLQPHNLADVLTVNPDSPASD
Method in brief: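 Displacement of a DNA-tagged TYK2 JH2 fusion (human, aa G556–D888, HEK293 extract, <0.1 nM) from ligand-coated beads over 1 h at RT; binding buffer PBS/0.05% Tween 20/10 mM DTT/0.1% BSA.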

Tyk2 kinase domain (DH1), sequence (P29597 897-1176): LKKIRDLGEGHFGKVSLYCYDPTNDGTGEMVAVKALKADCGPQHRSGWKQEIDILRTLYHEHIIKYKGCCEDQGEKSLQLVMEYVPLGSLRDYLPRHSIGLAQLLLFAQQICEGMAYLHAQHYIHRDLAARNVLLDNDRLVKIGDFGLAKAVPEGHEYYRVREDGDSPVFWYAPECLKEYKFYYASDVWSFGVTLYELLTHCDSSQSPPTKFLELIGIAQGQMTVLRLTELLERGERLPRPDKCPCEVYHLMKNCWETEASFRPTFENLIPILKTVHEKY

inhibition at 10 µM (Tyk2 kinase domain (DH1)) [%] | inhibition at 10 µM (JAK2 kinase domain (JH1)) [%] | Kd [1] [nM] | Structure (SMILES)
< 50 | 70 to 90 | 1 to 10 | NC(=O)c1cnn2c(N)cc(Nc3cccc(N4CCCC4)c3Cl)nc12 [I-23]
< 50 | < 50 | < 0.2 | CNc1cc(Nc2cccnc2OC)nc2c(C(N)=O)cnn12 [I-24]
< 50 | < 50 | 0.2 to 1 | NC(=O)c1cnn2c(N)cc(Nc3cccn(-c4ccc(F)cc4)c3=O)nc12 [I-25]
< 50 | < 50 | < 0.2 | CNc1cc(Nc2cc(C)cn(-c3ccn(C)n3)c2=O)nc2c(C(N)=O)cnn12 [I-26]
< 50 | < 50 | 1 to 10 | CNc1cc(Nc2cc(C)nc(N3CCCC3)c2)nc2c(C(N)=O)cnn12 [I-27]
< 50 | < 50 | > 10 | Cc1cc(Nc2cc(N)n3ncc(C(N)=O)c3n2)cc(N2CCCC2)n1 [I-28]
< 50 | < 50 | 1 to 10 | CNc1cc(Nc2cc(C)nc(N3CC[C@@H](OC)C3)c2)nc2c(C(N)=O)cnn12 [I-29]
< 50 | < 50 | 1 to 10 | CO[C@@H]1CCN(c2cc(Nc3cc(N)n4ncc(C(N)=O)c4n3)cc(C)n2)C1 [I-30]
< 50 | < 50 | 0.2 to 1 | Cc1cc(Nc2cc(N)n3ncc(C(N)=O)c3n2)c(=O)n(-c2cnn(C)c2)c1 [I-32]
< 50 | < 50 | 0.2 to 1 | CCOc1ccc(-n2cccc(Nc3cc(N)n4ncc(C(N)=O)c4n3)c2=O)nn1 [I-33]
< 50 | < 50 | 0.2 to 1 | Cc1cc(Nc2cc(N)n3ncc(C(N)=O)c3n2)c(=O)n(-c2ccn(C)n2)c1 [I-34]
< 50 | < 50 | < 0.2 | CNc1cc(Nc2cccn(-c3cccc(C(C)(C)O)n3)c2=O)nc2c(C(N)=O)cnn12 [I-37]
< 50 | < 50 | 0.2 to 1 | CN(C)C(=O)c1cnc(-n2cccc(Nc3cc(N)n4ncc(C(N)=O)c4n3)c2=O)cn1 [I-38]
< 50 | < 50 | 1 to 10 | CNc1cc(-c2ccn(-c3ccccc3)n2)nc2c(C(N)=O)cnn12 [I-39, 7-(methylamino)-5-(1-phenyl-1H-pyrazol-3-yl)pyrazolo[1,5-a]pyrimidine-3-carboxamide]
< 50 | < 50 | 0.2 to 1 | CNc1cc(Nc2cc(Cl)cn(C3CNC3)c2=O)nc2c(C(N)=O)cnn12 [I-40]
< 50 | < 50 | 1 to 10 | CC(C)(O)c1cccc(-n2cccc(Nc3cc(N)n4ncc(C(N)=O)c4n3)c2=O)n1 [I-41]
< 50 | < 50 | 1 to 10 | Cc1nccc(-n2cccc(Nc3cc(N)n4ncc(C(N)=O)c4n3)c2=O)n1 [I-42]
< 50 | < 50 | < 0.2 | CNc1cc(Nc2cccn(-c3ccon3)c2=O)nc2c(C(N)=O)cnn12 [I-43, 5-((1-(isoxazol-3-yl)-2-oxo-1,2-dihydropyridin-3-yl)amino)-7-(methylamino)pyrazolo[1,5-a]pyrimidine-3-carboxamide]
< 50 | < 50 | 0.2 to 1 | CNc1cc(-c2cnn(-c3ccccc3)c2)nc2c(C(N)=O)cnn12 [I-44]
< 50 | < 50 | < 0.2 | CNc1cc(Nc2cccn(-c3ccc(C(=O)N4CCCC4)cn3)c2=O)nc2c(C(N)=O)cnn12 [I-45]
< 50 | < 50 | < 0.2 | CNc1cc(Nc2cccn(-c3cc(C)on3)c2=O)nc2c(C(N)=O)cnn12 [I-46]
< 50 | < 50 | 0.2 to 1 | CNc1cc(Nc2cccn(-c3ccc(F)cn3)c2=O)nc2c(C(N)=O)cnn12 [I-48]
< 50 | < 50 | 0.2 to 1 | CCn1cc(Cl)cc(Nc2cc(N)n3ncc(C(N)=O)c3n2)c1=O [I-49]
< 50 | < 50 | 0.2 to 1 | NC(=O)c1cnn2c(N)cc(Nc3cccn([C@H]4CC[C@H](O)CC4)c3=O)nc12 [I-50]
< 50 | < 50 | 0.2 to 1 | CNc1cc(Nc2cccn(-c3ccnc(C)n3)c2=O)nc2c(C(N)=O)cnn12 [I-51]
< 50 | < 50 | 0.2 to 1 | NC(=O)c1cnn2c(N)cc(Nc3cccn(-c4ccc(F)cn4)c3=O)nc12 [I-52]

inhibition at 10 µM (Tyk2 kinase domain (DH1)) [%] | inhibition at 10 µM (JAK2 kinase domain (JH1)) [%] | Kd [1] [nM] | Structure (SMILES)
< 50 | < 50 | 1 to 10 | CNc1cc(Nc2cc(C)nc(N3CCCC3=O)c2)nc2c(C(N)=O)cnn12 [I-54]
< 50 | < 50 | > 10 | Cc1cc(Nc2cc(N)n3ncc(C(N)=O)c3n2)cc(N2CCCC2=O)n1 [I-55]
< 50 | < 50 | > 10 | Cc1cc(Nc2cc(N)n3ncc(C(N)=O)c3n2)cc(N2CC[C@@H](O)C2)n1 [I-56]
< 50 | < 50 | 0.2 to 1 | NC(=O)c1cnn2c(N)cc(Nc3cccn(-c4ccon4)c3=O)nc12 [I-57]
< 50 | 50 to 70 | < 0.2 | NC(=O)c1cnn2c(N)cc(Nc3cccc(N4CCCC4=O)n3)nc12 [I-58]
< 50 | < 50 | < 0.2 | CNc1cc(Nc2cccn([C@H]3CC[C@H](O)CC3)c2=O)nc2c(C(N)=O)cnn12 [I-59]
< 50 | < 50 | 1 to 10 | CNc1cc(Nc2cc(C)nc(N3CC[C@@H](O)C3)c2)nc2c(C(N)=O)cnn12 [I-60]
< 50 | < 50 | 0.2 to 1 | CNc1cc(Nc2cc(C)nc(N3CCC[C@@H](O)C3)c2)nc2c(C(N)=O)cnn12 [I-61]
< 50 | < 50 | < 0.2 | CNc1cc(Nc2cccn(-c3cnc(C(C)(C)O)cn3)c2=O)nc2c(C(N)=O)cnn12 [I-63]
< 50 | < 50 | 0.2 to 1 | Cc1cc(-n2cccc(Nc3cc(N)n4ncc(C(N)=O)c4n3)c2=O)no1 [I-64]
< 50 | < 50 | < 0.2 | CNc1cc(Nc2cccc(N3CCOC3=O)n2)nc2c(C(N)=O)cnn12 [I-65]
< 50 | 50 to 70 | 0.2 to 1 | NC(=O)c1cnn2c(N)cc(Nc3cccc(N4CCOC4=O)n3)nc12 [I-66]
< 50 | < 50 | < 0.2 | CNc1cc(Nc2cccn(C3CCN(CC(F)F)CC3)c2=O)nc2c(C(N)=O)cnn12 [I-67]
< 50 | < 50 | 0.2 to 1 | CNc1cc(Nc2cccn([C@H]3CC[C@@H](N4CCOCC4)CC3)c2=O)nc2c(C(N)=O)cnn12 [I-68]
< 50 | < 50 | 0.2 to 1 | CNc1cc(Nc2ccnn(-c3ccc(F)cc3)c2=O)nc2c(C(N)=O)cnn12 [I-69]
< 50 | < 50 | 1 to 10 | NC(=O)c1cnn2c(N)cc(Nc3ccnn(-c4ccc(F)cc4)c3=O)nc12 [I-70, 7-amino-5-((2-(4-fluorophenyl)-3-oxo-2,3-dihydropyridazin-4-yl)amino) pyrazolo[1,5-a]pyrimidine-3-carboxamide]
< 50 | < 50 | < 0.2 | CNc1cc(Nc2cc(Cl)cnc2OC2CCOC2)nc2c(C(N)=O)cnn12 (stereo not drawn) [I-71]
< 50 | < 50 | 1 to 10 | CNc1cc(Nc2cc(C)nn(-c3cnn(C)c3)c2=O)nc2c(C(N)=O)cnn12 [I-73]
< 50 | < 50 | 0.2 to 1 | Cc1cc(Nc2cc(N)n3ncc(C(N)=O)c3n2)c(=O)n(-c2cnn(C)c2)n1 [I-74]
< 50 | < 50 | 0.2 to 1 | CNc1cc(Nc2cc(C)cn(-c3ccnn3C)c2=O)nc2c(C(N)=O)cnn12 [I-75]
< 50 | < 50 | 1 to 10 | NC(=O)c1cnn2c(N)cc(Nc3cccn([C@H]4CC[C@@H](N5CCOCC5)CC4)c3=O)nc12 [I-76]
< 50 | < 50 | 0.2 to 1 | CC(C)Oc1ncccc1Nc1cc(N)n2ncc(C(N)=O)c2n1 [I-77]
< 50 | < 50 | < 0.2 | CNc1cc(Nc2cc(Cl)cnc2OC(C)C)nc2c(C(N)=O)cnn12 [I-78]
< 50 | < 50 | 0.2 to 1 | CC(C)Oc1ncc(Cl)cc1Nc1cc(N)n2ncc(C(N)=O)c2n1 [I-79]
< 50 | < 50 | 0.2 to 1 | CNc1cc(Nc2cc(Cl)cnc2OC2CCC2)nc2c(C(N)=O)cnn12 [I-80]
< 50 | < 50 | 1 to 10 | NC(=O)c1cnn2c(N)cc(Nc3cc(Cl)cnc3OC3CCC3)nc12 [I-81]
